Test systems include HT29 colon; RXF 393 renal; NCI-H23 lung; OVCAR-4 ovarian; HCC-2998 colon; NCI-H522 lung; HCT-15 colon; M14 melanoma; HCT-116 colon.
Common to all, as to test: NCI-60 cell line screen, 48 h

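Exposure lasted 48 hours, with cells grown in 96-well plates and compounds tested at five concentrations. Here, GI50 denotes the concentration required for 50% inhibition of growth. TGI marks complete inhibition of growth.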 Where only a bound is given, the exact number is not on record here.

Take `COC1=C2C[C@H](O)C(C)C[C@@]2(OC)OC1=O` (stereo not given in full): the TGI in the assay on HT29 colon, with RXF 393 renal, with NCI-H23 lung, in the assay with OVCAR-4 ovarian, with HCC-2998 colon and in the assay with NCI-H522 lung was more than 100 µM throughout. For the same compound, the TGI in the assay on HCT-15 colon, in the assay with M14 melanoma and in the assay on HCT-116 colon was more than 100 µM each time.
As to `O=C1C2CC=CCC2C(=O)C12CCc1ccccc12` (stereo not given), the TGI in the assay on HT29 colon, in the assay with RXF 393 renal, with NCI-H23 lung, with OVCAR-4 ovarian, in the assay with HCC-2998 colon and in the assay on HCT-15 colon was more than 100 µM in each case. In the assay on M14 melanoma, this compound had a TGI of more than 100 µM.
As for `Cc1ccc(C(=O)N2CCN(C(=O)c3ccc(C)cc3)c3ccccc32)cc1`, the TGI in the assay with HT29 colon was 21.3 µM; in the assay with RXF 393 renal, 8.43 µM; in the assay with NCI-H23 lung, more than 100 µM; in the assay with OVCAR-4 ovarian, more than 100 µM; with HCC-2998 colon it was 40.9 µM; in the assay with NCI-H522 lung it was 5.96 µM. The TGI is more than 100 µM in the assay on HCT-15 colon, more than 100 µM in the assay on M14 melanoma and more than 62.6 µM with HCT-116 colon.
Regarding `NC(CC(=O)Nc1ccc(Cl)cc1)=Nc1ccccc1`, the TGI in the assay on HT29 colon, in the assay on RXF 393 renal, in the assay on NCI-H23 lung, with OVCAR-4 ovarian, in the assay on HCC-2998 colon and with NCI-H522 lung was more than 100 µM each time. For the same compound, the TGI in the assay on M14 melanoma and in the assay on HCT-116 colon was more than 100 µM in each case.
Turning to `CCOc1ccccc1N1C(=O)C(=O)C(c2nc3ccccc3o2)/C(=N\N)C1=O` (stereo not given), the TGI in the assay on HT29 colon, in the assay with RXF 393 renal, with NCI-H23 lung, with OVCAR-4 ovarian, with HCC-2998 colon and in the assay on NCI-H522 lung was more than 100 µM each time. Besides, the TGI with HCT-15 colon, with M14 melanoma and in the assay on HCT-116 colon was more than 100 µM each time.
`CCO/C=C1\N=C(C(Cl)c2ccccc2)OC1=O` (stereo not given): the TGI in the assay on HT29 colon, in the assay with RXF 393 renal, in the assay on NCI-H23 lung, in the assay on OVCAR-4 ovarian, in the assay with HCC-2998 colon and in the assay with NCI-H522 lung was more than 100 µM each time. Also, the TGI in the assay on HCT-15 colon and in the assay with M14 melanoma was more than 100 µM in each case.
For `C/C(CC(=O)Nc1ccc(Cl)cc1)=N\NC(=O)C[n+]1ccccc1`, the TGI in the assay with HT29 colon, in the assay with RXF 393 renal, with NCI-H23 lung, in the assay on HCC-2998 colon, in the assay on NCI-H522 lung and in the assay on M14 melanoma was more than 100 µM in each case. In addition, in the assay with HCT-116 colon, the TGI was more than 100 µM.
As to `O=c1nc(NC(c2ccccc2)(c2ccccc2)c2ccccc2)ccn1CCO`, the TGI in the assay on HT29 colon, with RXF 393 renal, with NCI-H23 lung, with OVCAR-4 ovarian, in the assay on HCC-2998 colon and with NCI-H522 lung was more than 100 µM in each case. Also, the TGI in the assay on HCT-15 colon and in the assay on HCT-116 colon was more than 100 µM throughout.
`CSc1nc(SC)c2c(C(N)=S)[nH]nc2n1`: the TGI with HT29 colon is more than 100 µM; with RXF 393 renal, 61 µM; in the assay with NCI-H23 lung it was 66.3 µM; in the assay with OVCAR-4 ovarian, 55.8 µM; in the assay with HCT-15 colon, more than 100 µM; in the assay with M14 melanoma it was more than 100 µM.
Consider `COc1cc(C=O)c(-c2cc3c(cc2C2(C)OCCS2)OCO3)c(OC)c1OC` (stereo not given), for which the TGI with HT29 colon came to 20.7 µM; with RXF 393 renal, 46.9 µM; in the assay with NCI-H23 lung, 92.9 µM; in the assay on OVCAR-4 ovarian, 173 µM; with HCC-2998 colon, 31.2 µM; in the assay with NCI-H522 lung it was 13 µM. In addition, the TGI in the assay with HCT-15 colon came out at 30.2 µM; in the assay on M14 melanoma, 16.1 µM; in the assay with HCT-116 colon it was 28.2 µM.
With `Nc1nc(NC2C=C(CO)C(O)C2O)c([N+](=O)[O-])c(=O)[nH]1` (stereo not given), the TGI with HT29 colon, in the assay with RXF 393 renal, with NCI-H23 lung, in the assay on OVCAR-4 ovarian, with HCC-2998 colon and in the assay on NCI-H522 lung was more than 100 µM throughout. The TGI with HCT-15 colon, with M14 melanoma and in the assay with HCT-116 colon was more than 100 µM in each case.
For the compound `CC(C)(O)[C@@H]1CC[C@@]2(C)CCC[C@H](O)[C@H]2C1`, the TGI with HT29 colon, in the assay on NCI-H23 lung, in the assay with OVCAR-4 ovarian, with HCC-2998 colon, with NCI-H522 lung and in the assay with HCT-15 colon was more than 100 µM throughout. In addition, the TGI in the assay on M14 melanoma and with HCT-116 colon was more than 100 µM in each case.
For `COc1ccc(C2=Nc3c/c(=C\c4c(O)[nH]c5ccc(Cl)cc45)ccc3=N2)cc1`, the GI50 with RXF 393 renal is 1580 nM; with OVCAR-4 ovarian it was 1800 nM; in the assay on HCC-2998 colon, 1240 nM; with HCT-15 colon, 1260 nM; in the assay with M14 melanoma, 1290 nM; with HCT-116 colon, 1550 nM. In addition, the TGI with RXF 393 renal came out at 3.15 µM; with OVCAR-4 ovarian it was 3.34 µM; in the assay on HCC-2998 colon, 2.51 µM; in the assay with HCT-15 colon, 2.77 µM; with M14 melanoma it was 3.67 µM; in the assay with HCT-116 colon it was 3.1 µM.
With `O=C(NC12CC3CC(CC(C3)C1)C2)C(=O)c1c[nH]c2ccc([N+](=O)[O-])cc12`, the TGI in the assay on HT29 colon is more than 100 µM; in the assay on RXF 393 renal, more than 94.6 µM; with NCI-H23 lung it was more than 100 µM; with OVCAR-4 ovarian it was 54.4 µM; in the assay with HCC-2998 colon, more than 100 µM; in the assay on NCI-H522 lung, more than 100 µM. Besides, the TGI in the assay with HCT-15 colon, in the assay with M14 melanoma and with HCT-116 colon was more than 100 µM throughout.
As to `COC(=O)c1ccc(NC(=O)c2cc(OC)c(OC)c(OC)c2)cc1`, the TGI with HT29 colon was more than 100 µM; in the assay on RXF 393 renal, 77.2 µM; in the assay on OVCAR-4 ovarian, more than 100 µM; in the assay on HCC-2998 colon it was 6.67 µM; in the assay on NCI-H522 lung, 3.58 µM; in the assay on M14 melanoma it was more than 100 µM. In addition, the TGI with HCT-116 colon is more than 100 µM.

The record behind these values is PubChem BioAssay (NCI).
